Values of other authors in patent US6107342A, “2-amino-bicyclo[3.1.0]hexane-2,6-dicarboxylic acid derivatives and a process for the preparation thereof” (Hoffmann-La Roche Inc., priority 1998, dated 2000).

Columns and labels:
[1] = target: group II metabotropic glutamate receptor; conditions: antagonism of inhibition by LY354740; Mol. Pharmacology, Vol.53, 228-233 (1998)
mGluR2 = conditions: Mol. Pharmacology, Vol.53, 228-233 (1998)
mGluR3 = conditions: Mol. Pharmacology, Vol.53, 228-233 (1998)

## N[C@]1(C(=O)O)[C@H]2[C@@H](C[C@H]1O)[C@@H]2C(=O)O [I-A, (1S,2R,3R,5R,6S)-2-amino-3-hydroxy-bicyclo [3.1.0]hexane-2,6-dicarboxylic acid]
[1]
  pKB: 6.0
mGluR2
  Ki: 52 nM
mGluR3
  Ki: 89 nM
